Reference: publication PMC9400856 (Molecular Informatics, 2022)

Target: mouse β3-adrenergic receptor (mβ3-AR) (Mus musculus, UniProt P25962)
Assay: cAMP accumulation
Assay type: cell-based

Chain of mouse β3-adrenergic receptor (mβ3-AR) (P25962 whole entry): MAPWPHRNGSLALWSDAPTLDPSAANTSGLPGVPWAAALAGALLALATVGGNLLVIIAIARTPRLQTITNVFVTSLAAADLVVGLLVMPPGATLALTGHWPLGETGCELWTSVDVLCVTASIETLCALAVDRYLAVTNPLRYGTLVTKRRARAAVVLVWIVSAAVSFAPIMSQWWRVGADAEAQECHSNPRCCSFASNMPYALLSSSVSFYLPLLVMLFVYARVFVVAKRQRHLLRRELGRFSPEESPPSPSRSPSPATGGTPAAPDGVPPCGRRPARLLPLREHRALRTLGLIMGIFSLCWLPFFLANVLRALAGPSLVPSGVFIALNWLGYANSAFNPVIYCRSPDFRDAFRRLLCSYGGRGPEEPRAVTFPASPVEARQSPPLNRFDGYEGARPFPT

Compound: C[C@H](Cc1ccc(OCC(=O)O)cc1)NC[C@H](O)c1cccc(Cl)c1 [compound 3, BRL37344]
- EC50: 0.692 nM
